Reference: patent publication US7943296B2, “Methods of screening using a natriuretic peptide receptor” (Oregon Health & Science University, priority 2005, dated 2011)

What was measured:
[1] = tested on: NPRA; assay: [35S]ATPγS incorporation into NPRA (receptor phosphorylation) in CFs; assay type: cell-based, rat; details: ANP 5 minutes, KT5823 1 μM or expressed fragment
Description: To identify receptor phosphorylation by PKG, ^[35S]ATPγS was employed as a substrate. [^35S] incorporation into NPRA was analyzed according to the method previously described (Joubert et al., Biochem. 40:11096-105, 2001). Briefly, the treated CFs were scraped into 100 μl ice-cold incubation buffer (25 mM HEPES, pH 7.4, 50 mM NaCl, 5 mM MgCl2, 0.2 μM okadaic acid, 1 mM Na3VO4, 10 mM NaH2PO4, 10 mM NaF, and protease inhibitors (complete mini-tablet, Roche) and lysed by repeated passage through a 22-gauge needle. Lysates were added to incubation buffer containing 1 μCi [^35S]ATPγS (specific activity >1000 Ci/mmol), final volume of 200 μl, incubated at 37° C. for 30 minutes. Proteins were analyzed by SDS-PAGE (7.5%) and subsequent autoradiography.

[2] = tested on: cardiac fibroblasts (CFs); assay: bFGF-induced α-SMA protein expression in CFs (Western blot); assay type: cell-based, rat; details: fragment expressed; 10 ng/ml FGF 48 hours; 100 nM ANP
Description: NP's ability to inhibit growth factor-induced CF differentiation into myofibroblasts was determined as follows. CFs were transiently transfected with insertless pcDNA3 vector or pcDNA3 encoding sNRF^(806-900) (see Example 7). The transfected CFs were then treated for 48 hours with 10 ng/ml basic fibroblast growth factor (FGF; Sigma-Aldrich #F0291) in the presence or absence of 100 nM ANP. Alpha-smooth muscle actin (α-SMA) protein expression, the principal marker of CF differentiation, was assessed by Western blotting and immunofluorescence microscopy. Vimentin staining was used as a loading control because it is expressed equally in fibroblasts and transdifferentiated myofibroblasts.

[3] = target: T1, full-length NPRA (Homo sapiens, UniProt P16066); assay: Association of NPRA fragment with full-length NPRA; assay type: binding; details: in the presence or absence of activated PKG
T1 sequence (P16066 33-1061): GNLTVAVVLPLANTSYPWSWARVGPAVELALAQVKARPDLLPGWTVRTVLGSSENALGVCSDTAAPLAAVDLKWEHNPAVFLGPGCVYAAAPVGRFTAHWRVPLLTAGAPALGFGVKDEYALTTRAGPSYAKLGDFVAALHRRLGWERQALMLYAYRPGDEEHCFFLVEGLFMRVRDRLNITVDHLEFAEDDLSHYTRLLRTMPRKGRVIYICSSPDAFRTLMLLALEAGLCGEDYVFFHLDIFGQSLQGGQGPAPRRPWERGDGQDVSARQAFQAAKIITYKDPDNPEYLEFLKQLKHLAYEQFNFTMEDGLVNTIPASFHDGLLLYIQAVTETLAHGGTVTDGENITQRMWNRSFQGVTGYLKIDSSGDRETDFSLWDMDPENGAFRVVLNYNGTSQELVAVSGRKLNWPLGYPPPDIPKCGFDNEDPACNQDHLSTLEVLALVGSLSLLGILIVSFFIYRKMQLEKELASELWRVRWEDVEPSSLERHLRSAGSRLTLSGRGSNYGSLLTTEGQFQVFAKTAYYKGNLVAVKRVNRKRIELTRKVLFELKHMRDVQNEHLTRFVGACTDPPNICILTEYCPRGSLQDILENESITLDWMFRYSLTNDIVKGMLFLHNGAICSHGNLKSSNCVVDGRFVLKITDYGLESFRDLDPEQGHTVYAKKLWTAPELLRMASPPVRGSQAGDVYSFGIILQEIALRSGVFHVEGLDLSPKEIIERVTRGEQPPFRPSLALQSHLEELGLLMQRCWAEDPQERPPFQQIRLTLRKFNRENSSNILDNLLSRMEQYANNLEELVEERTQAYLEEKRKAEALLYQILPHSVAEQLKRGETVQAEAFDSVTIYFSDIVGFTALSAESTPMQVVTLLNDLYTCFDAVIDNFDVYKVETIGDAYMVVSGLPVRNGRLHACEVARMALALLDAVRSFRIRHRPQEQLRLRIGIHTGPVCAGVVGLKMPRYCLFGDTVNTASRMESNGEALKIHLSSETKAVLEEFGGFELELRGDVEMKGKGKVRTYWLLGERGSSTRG

sNRF^(806-900): intracellular NPRA fragment, residues 806-900, excludes the cyclase-containing domain; shortest fragment observed to associate with PKG
ANP-induced NPRA phosphorylation [1]: reduced ANP-induced NPRA phosphorylation to control levels
ANP's inhibitory effect on growth factor-induced α-SMA protein expression [2]: reversed ANP's inhibitory effect
association with full-length NPRA [3]: failed to associate with full-length NPRA
